Laboratory results reported in patent US20240065997A1, “Methods and Compositions for Improving Insulin Production and Secretion” (ABBOTT LABORATORIES, priority 2021, published 2024).

What was measured:
INS-1 cells [1] = experiment: 2-deoxy-[3H]d-glucose (2-DG) uptake in INS-1 cells; assay type: cell-based, rat; conditions: overnight incubation, lysine 10 mM, arginine 5 mM, HMB 25 μM, 2-DG uptake over 10 min, FIG. 1
Method: 2-deoxy-[3H]d-glucose (2-DG) (10 μmol/L) uptake was measured over a 10 minute period under conditions in which the uptake was linear. The uptake of 2-DG was terminated after 10 minutes by rapidly aspirating off the radioactive incubation medium and washing the cells three times in ice-cold phosphate-buffered saline. The radioactivity associated with the cells was determined by cell lysis in 0.5 N NaOH with neutralization by the addition of 0.5 N HCl, followed by liquid scintillation. Aliquots from each well were used to determine the protein concentration using the bicinchoninic acid (BCA) Protein assay.

INS-1 cells [2] = experiment: Insulin production by INS-1 cells (24 h effectors, then glucose 2 h; RIEI Kit); assay type: cell-based, rat; conditions: arginine 5 mM, lysine 10 mM, HMB 25 μM for 24 hours, then glucose 10 mM 2 hours, FIG. 4
Method: Insulin production by β-cells was evaluated by incubating INS-1 cells in the presence of the following effectors: arginine (5 mM), lysine (10 mM), HMB (25 μM), and a combination of arginine (5 mM), lysine (10 mM), and HMB (25 μM). INS-1 cells without effectors were again used as a control. The cells were incubated with each of the above mentioned effectors for 24 hours. Following the initial 24 hour incubation period with the effectors, the same INS-1 cells were incubated with glucose (10 mM) for 2 hours. Insulin was again detected using the RIEI Kit according to the manufacturer's instructions.

GLUT2 = experiment: Expression level of glucose transporter GLUT2 in INS-1 cells; conditions: HMB 25 μM, FIG. 2; for increase in the relative intensity of the expression level of GLUT2 compared to control: lysine 10 mM, arginine 5 mM
Method: The INS-1 cells were maintained in RPMI 1640 medium with 11.1 mmol/L D-glucose supplemented with 10% fetal bovine serum, 100 units/mL penicillin, 100 μg/mL streptomycin, 10 mmol/L HEPES, 2 mmol/L L-glutamine, 1 mmol/L sodium pyruvate, and 50 μmol/L β-mercaptoethanol at 37° C./5% CO2 in a humidified atmosphere.
The cells were incubated with different effectors overnight. The following cell groups were employed: • (i) Control: INS-1 cells without ingredients. • (ii) ARG: INS-1 cells incubated in the presence of 5 mM of arginine. • (iii) LYS: INS-1 cells incubated in the presence of 10 mM of lysine. • (iv) HMB: INS-1 cells incubated in the presence of 25 μM of HMB-free acid. • (v) MIX: INS-1 cells incubated in the presence of the combination of 5 mM of arginine, 10 mM of lysine, and 25 μM of HMB.

INS-1 cells [3] = experiment: MTT cell viability assay in palmitate-treated INS-1 cells; assay type: cell-based, rat; conditions: palmitate 250 μM 24 hours, effectors added 3 hours before (arginine 5 mM, lysine 10 mM, HMB 25 μM), FIG. 6
Method: This example describes the use of the rat insulinoma cell line (INS-1) to detect the effect of the combination of lysine, arginine, and HMB on the functional characteristics of β-cells in the presence of free fatty acids (e.g., palmitic acid) using standardized protocols for viability. […] The INS-1 cells were maintained in RPMI 1640 medium with 11.1 mmol/L D-glucose supplemented with 10% fetal bovine serum, 100 units/mL penicillin, 100 μg/mL streptomycin, 10 mmol/L HEPES, 2 mmol/L L-glutamine, 1 mmol/L sodium pyruvate, and 50 μmol/L β-mercaptoethanol at 37° C./5% CO2 in a humidified atmosphere.
The pre-confluent pancreatic cells were left either untreated (Control) or treated with palmitate at a concentration of 250 μM for 24 hours in complete medium (Palmitate). Three hours before incubation with palmitate, four different effectors were added: arginine (5 mM), lysine (10 mM), HMB (25 μM), and the combination of arginine (5 mM), lysine (10 mM), and HMB (25 μM).
The cell groups employed in the study were the following: • (i) Control: INS-1 cells without ingredients. • (ii) Palmitate: INS-1 cells incubated in the presence of 250 μM palmitate. • (iii) Palmitate+ARG: INS-1 cells incubated in the presence of 250 μM palmitate and 5 mM of arginine. • (iv) Palmitate+LYS: INS-1 cells incubated in the presence of 250 μM palmitate and 10 mM of lysine. • (v) Palmitate+HMB: INS-1 cells incubated in the presence of 250 μM palmitate and 25 μM of HMB-free acid. • (vi) Palmitate+MIX: INS-1 cells incubated in the presence of 250 μM palmitate and the combination of 5 mM of arginine, 10 mM of lysine, and 25 μM of HMB.
A cell viability assay was performed by the indirect measurement of cell metabolic activity using MTT (3-(4,5-dimethylthiazol-2-yl)-2,5-diphenyltetrazolium bromide). After 24 hours of incubation with the above effectors, the MTT solution (0.5 mg/ml) was added for 30 minutes. The supernatant was removed, 100 μl MTT solvent was added to each well, and the culture plate was shaken for 10 minutes before the Optical Density (OD) values were recorded at 570 nm.

INS-1 cells [4] = experiment: Acute insulin secretion in INS-1 cells (Rat Insulin Enzyme Immunoassay); assay type: cell-based; conditions: glucose 10 mM, arginine 5 mM, lysine 10 mM, HMB 25 μM, 2 hours, FIG. 3
Method: Acute insulin secretion was determined by incubating INS-1 cells in the presence of the following effectors: glucose (10 mM), and the effectors arginine (5 mM), lysine (10 mM), HMB (25 μM), and a combination of arginine (5 mM), lysine (10 mM), and HMB (25 μM) for 2 hours. INS-1 cells without effectors were used as a control. Insulin was detected using the Rat Insulin Enzyme Immunoassay (RIEI) Kit (Mercodia, Sweden) according to the manufacturer's instructions.

CC(C)(O)CC(=O)O [HMB, beta-hydroxy-beta-methylbutyrate]
increase in glucose uptake compared to the control (INS-1 cells [1]): about 31%
insulin production compared to the control (in words) (INS-1 cells [2]): rose slightly
decrease in the relative intensity of the expression level of GLUT2 compared to control (GLUT2): ~23%
cell viability at 24 hours (in words) (INS-1 cells [3]): reduced cell viability
acute response of insulin secretion to extracellular glucose, with respect to the control (in words) (INS-1 cells [4]): did not show a significant difference

N=C(N)NCCC[C@H](N)C(=O)O [arginine]
increase in glucose uptake compared to the control (INS-1 cells [1]): about 52%
insulin production compared to the control (in words) (INS-1 cells [2]): rose slightly
increase in the relative intensity of the expression level of GLUT2 compared to control (GLUT2): ~30%
cell viability at 24 hours (in words) (INS-1 cells [3]): reduced cell viability
acute response of insulin secretion to extracellular glucose, with respect to the control (in words) (INS-1 cells [4]): did not show a significant difference

NCCCC[C@H](N)C(=O)O [lysine]
increase in glucose uptake compared to the control (INS-1 cells [1]): about 100%
insulin production compared to the control (in words) (INS-1 cells [2]): rose slightly
increase in the relative intensity of the expression level of GLUT2 compared to control (GLUT2): ~90%
cell viability at 24 hours (in words) (INS-1 cells [3]): reduced cell viability
acute response of insulin secretion to extracellular glucose, with respect to the control (in words) (INS-1 cells [4]): did not show a significant difference
